According to patent US10781224B2, “Bis(oxymethyl)phosphinic acid and biogenic metal salts thereof as regulators of plant growth and development” (priority 2016, dated 2020):

Key:
[1] = system: corn (Krasnodar 385 MV variety); assay: Corn seed treatment with BHMPA salts: germination energy and germination rate; assay type: in vivo
Method in brief: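 Corn, winter wheat and rice seeds (50 per dish, on filter paper) were soaked for 1 h in BHMPA or its metal salts at 1·10^−6-1·10^−12%, with water as control. Germination energy was read on day 4 and germination rate on day 8 for wheat and day 7 for rice and corn, following GOST 12038-84, as the mean of four replicates.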

rice (Diamant variety) = assay: Rice seed treatment with BHMPA salts: germinating power; assay type: in vivo
Method in brief: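 Seeds (50 per Petri dish on two layers of filter paper) soaked 1 h in BHMPA or its Ca, Mg, Na, Co, Mn, Cu or Zn salts at 1·10^−6-1·10^−12%, with water controls. Germination energy read on day 4, germination on day 8 (wheat) or day 7 (rice, corn), as % means of four replicates. Germinating power taken as root and sprout length plus wet and dry mass per 100 seedlings.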

[2] = comparative study vs Melaphen, 1·10^−9% solution
[3] = rice seed treatment, comparison with Melaphen (Table XXXIII), solution 1 · 10^−10%
[4] = rice seeds, solution concentration 1 · 10^−6%
[5] = rice seeds, solution concentration 1 · 10^−7%
[6] = rice seeds, solution concentration 1 · 10^−8%
[7] = rice seeds, solution concentration 1 · 10^−9%
[8] = rice seeds, solution concentration 1 · 10^−10%
[9] = rice seeds, solution concentration 1 · 10^−11%
[10] = rice seeds, solution concentration 1 · 10^−12%
[11] = rice, vs control, 1·10^−10% solution

O=P([O-])(CO)CO.O=P([O-])(CO)CO.[Mg+2] [Mg-salt, Magnesium BHMPA Salt]
Germination energy ([1]; 1·10^−6% solution): 82.3%
Germination rate ([1]; 1·10^−6% solution): 84.7%
Germination energy ([1]; 1·10^−7% solution): 85.3%
Germination rate ([1]; 1·10^−7% solution): 89.0%
Germination energy ([1]; 1·10^−8% solution): 87.7%
Germination rate ([1]; 1·10^−8% solution): 93.3%
Germination energy ([1]; 1·10^−9% solution): 89.71%
Germination rate ([1]; 1·10^−9% solution): 95.8%
Germination energy ([1]; 1·10^−9% solution, listed as Mg): 89.7%
Germination energy ([1]; 1·10^−10% solution): 90.3%
Germination rate ([1]; 1·10^−10% solution): 93.7%
Germination energy ([1]; 1·10^−11% solution): 88.0%
Germination rate ([1]; 1·10^−11% solution): 91.7%
Germination energy ([1]; 1·10^−12% solution): 86.7%
Germination rate ([1]; 1·10^−12% solution): 90.8%
Germination energy [1, 2]: 86.0%
Germination rate [1, 2]: 95.7%
optimum concentration for treating rice seeds before sowing (rice (Diamant variety); rice): 1·10^−10%
Length, root (rice (Diamant variety); [3]): 7.2 cm
Length, root, + % to control (rice (Diamant variety); [3]): 50%
Length, sprout (rice (Diamant variety); [3]): 4.6 cm
Length, sprout, + % to control (rice (Diamant variety); [3]): 77%
Mass, dry, root (rice (Diamant variety); [3]): 0.26 g/100 plantlings
Mass, dry, root, + % to control (rice (Diamant variety); [3]): 24%
Mass, dry, sprout (rice (Diamant variety); [3]): 0.30 g/100 plantlings
Mass, dry, sprout, + % to control (rice (Diamant variety); [3]): 20%
Mass, wet, root (rice (Diamant variety); [3]): 1.39 g/100 plantlings
Mass, wet, root, + % to control (rice (Diamant variety); [3]): 42%
Mass, wet, sprout (rice (Diamant variety); [3]): 2.39 g/100 plantlings
Mass, wet, sprout, + % to control (rice (Diamant variety); [3]): 58%
Length, root (rice (Diamant variety); [4]): 6.0 cm
Length, root, + % to control (rice (Diamant variety); [4]): 13%
Length, sprout (rice (Diamant variety); [4]): 2.8 cm
Length, sprout, + % to control (rice (Diamant variety); [4]): 4%
Mass, dry, root (rice (Diamant variety); [4]): 0.23 g/100 plantlings
Mass, dry, root, + % to control (rice (Diamant variety); [4]): 4.5%
Mass, dry, sprout (rice (Diamant variety); [4]): 0.35 g/100 plantlings
Mass, dry, sprout, + % to control (rice (Diamant variety); [4]): 21%
Mass, wet, root (rice (Diamant variety); [4]): 1.17 g/100 plantlings
Mass, wet, root, + % to control (rice (Diamant variety); [4]): 18%
Mass, wet, sprout (rice (Diamant variety); [4]): 1.96 g/100 plantlings
Mass, wet, sprout, + % to control (rice (Diamant variety); [4]): 10%
Length, root (rice (Diamant variety); [5]): 6.4 cm
Length, root, + % to control (rice (Diamant variety); [5]): 21%
Length, sprout (rice (Diamant variety); [5]): 2.9 cm
Length, sprout, + % to control (rice (Diamant variety); [5]): 7%
Mass, dry, root (rice (Diamant variety); [5]): 0.25 g/100 plantlings
Mass, dry, root, + % to control (rice (Diamant variety); [5]): 14%
Mass, dry, sprout (rice (Diamant variety); [5]): 0.40 g/100 plantlings
Mass, dry, sprout, + % to control (rice (Diamant variety); [5]): 40%
Mass, wet, root (rice (Diamant variety); [5]): 1.26 g/100 plantlings
Mass, wet, root, + % to control (rice (Diamant variety); [5]): 27%
Mass, wet, sprout (rice (Diamant variety); [5]): 2.21 g/100 plantlings
Mass, wet, sprout, + % to control (rice (Diamant variety); [5]): 24%
Length, root (rice (Diamant variety); [6]): 6.6 cm
Length, root, + % to control (rice (Diamant variety); [6]): 24.5%
Length, sprout (rice (Diamant variety); [6]): 3.0 cm
Length, sprout, + % to control (rice (Diamant variety); [6]): 11%
Mass, dry, root (rice (Diamant variety); [6]): 0.26 g/100 plantlings
Mass, dry, root, + % to control (rice (Diamant variety); [6]): 18%
Mass, dry, sprout (rice (Diamant variety); [6]): 0.43 g/100 plantlings
Mass, dry, sprout, + % to control (rice (Diamant variety); [6]): 48%
Mass, wet, root (rice (Diamant variety); [6]): 1.35 g/100 plantlings
Mass, wet, root, + % to control (rice (Diamant variety); [6]): 36%
Mass, wet, sprout (rice (Diamant variety); [6]): 2.31 g/100 plantlings
Mass, wet, sprout, + % to control (rice (Diamant variety); [6]): 30%
Length, root (rice (Diamant variety); [7]): 7.0 cm
Length, root, + % to control (rice (Diamant variety); [7]): 32%
Length, sprout (rice (Diamant variety); [7]): 3.2 cm
Length, sprout, + % to control (rice (Diamant variety); [7]): 18.5%
Mass, dry, root (rice (Diamant variety); [7]): 0.29 g/100 plantlings
Mass, dry, root, + % to control (rice (Diamant variety); [7]): 32%
Mass, dry, sprout (rice (Diamant variety); [7]): 0.47 g/100 plantlings
Mass, dry, sprout, + % to control (rice (Diamant variety); [7]): 62%
Mass, wet, root (rice (Diamant variety); [7]): 1.46 g/100 plantlings
Mass, wet, root, + % to control (rice (Diamant variety); [7]): 46%
Mass, wet, sprout (rice (Diamant variety); [7]): 2.37 g/100 plantlings
Mass, wet, sprout, + % to control (rice (Diamant variety); [7]): 33%
Length, root (rice (Diamant variety); [8]): 7.2 cm
Length, root, + % to control (rice (Diamant variety); [8]): 36%
Length, sprout (rice (Diamant variety); [8]): 3.8 cm
Length, sprout, + % to control (rice (Diamant variety); [8]): 41%
Mass, dry, root (rice (Diamant variety); [8]): 0.35 g/100 plantlings
Mass, dry, root, + % to control (rice (Diamant variety); [8]): 59%
Mass, dry, sprout (rice (Diamant variety); [8]): 0.49 g/100 plantlings
Mass, dry, sprout, + % to control (rice (Diamant variety); [8]): 69%
Mass, wet, root (rice (Diamant variety); [8]): 1.62 g/100 plantlings
Mass, wet, root, + % to control (rice (Diamant variety); [8]): 63%
Mass, wet, sprout (rice (Diamant variety); [8]): 2.52 g/100 plantlings
Mass, wet, sprout, + % to control (rice (Diamant variety); [8]): 41.5%
Length, root (rice (Diamant variety); [9]): 6.7 cm
Length, root, + % to control (rice (Diamant variety); [9]): 26%
Length, sprout (rice (Diamant variety); [9]): 3.1 cm
Length, sprout, + % to control (rice (Diamant variety); [9]): 15%
Mass, dry, root (rice (Diamant variety); [9]): 0.27 g/100 plantlings
Mass, dry, root, + % to control (rice (Diamant variety); [9]): 23%
Mass, dry, sprout (rice (Diamant variety); [9]): 0.44 g/100 plantlings
Mass, dry, sprout, + % to control (rice (Diamant variety); [9]): 52%
Mass, wet, root (rice (Diamant variety); [9]): 1.44 g/100 plantlings
Mass, wet, root, + % to control (rice (Diamant variety); [9]): 45%
Mass, wet, sprout (rice (Diamant variety); [9]): 2.34 g/100 plantlings
Mass, wet, sprout, + % to control (rice (Diamant variety); [9]): 31%
Length, root (rice (Diamant variety); [10]): 6.3 cm
Length, root, + % to control (rice (Diamant variety); [10]): 19%
Length, sprout (rice (Diamant variety); [10]): 2.9 cm
Length, sprout, + % to control (rice (Diamant variety); [10]): 7%
Mass, dry, root (rice (Diamant variety); [10]): 0.23 g/100 plantlings
Mass, dry, root, + % to control (rice (Diamant variety); [10]): 4.5%
Mass, dry, sprout (rice (Diamant variety); [10]): 0.39 g/100 plantlings
Mass, dry, sprout, + % to control (rice (Diamant variety); [10]): 34%
Mass, wet, root (rice (Diamant variety); [10]): 1.31 g/100 plantlings
Mass, wet, root, + % to control (rice (Diamant variety); [10]): 32%
Mass, wet, sprout (rice (Diamant variety); [10]): 2.18 g/100 plantlings
Mass, wet, sprout, + % to control (rice (Diamant variety); [10]): 22%
dry mass of the roots increased by (rice (Diamant variety); [11]): 59%
dry mass of the sprouts increased by (rice (Diamant variety); [11]): 69%
length of the root increased by (rice (Diamant variety); [11]): 36%
length of the sprout increased by (rice (Diamant variety); [11]): 41%
wet mass of the roots increased by (rice (Diamant variety); [11]): 63%
wet mass of the sprouts increased by (rice (Diamant variety); [11]): 41.5%
